Assay results published in article PMC9607644, “Glycoconjugation of Quinoline Derivatives Using the C-6 Position in Sugars as a Strategy for Improving the Selectivity and Cytotoxicity of Functionalized Compounds” (Molecules, 2022).

Assays:
Assay type in all cases: cell-based, human
HCT-116 cells [1] = experiment: MTT viability with GLUT1 inhibitor EDG, HCT-116; details: 100 µM EDG, 72 h
Description: (§1) To investigate the possible interaction of the tested compounds with glucose receptors and thus to check whether they target the Warburg effect, tests of the influence of the presence of the GLUT inhibitor on the effectiveness of the glycoconjugates were carried out. For this, cells were treated each time with the test compounds in the presence of 100 µM of the GLUT1 inhibitor 4,6-O-ethylidene-α-D-glucose (EDG).

MCF-7 cells [2] = experiment: MTT viability with GLUT1 inhibitor EDG, MCF-7; details: 100 µM EDG, 72 h
Description: as §1

HCT-116 cells [3] = experiment: Annexin V-FITC/PI apoptosis flow cytometry, HCT-116; details: IC50 dose, 24 h
Description: (§2) Apoptosis is a natural biological process involving programmed cell death and plays an important role in maintaining correct homeostasis between cell proliferation and cell death. This is in contrast to necrosis, which is accompanied by acute inflammation, preceded by cell degradation due to the loss of the integrity of the cell membrane. It is possible to distinguish viable cells from apoptotic and necrotic cell fractions using Annexin V-FITC and Propidium Iodide (PI). Annexin V-FITC labels phosphatidylserine residues that, after the start of apoptosis, are located on the outer surface of the cell membrane, enabling the identification of cells in the early stages of apoptosis. PI binds stoichiometrically to intracellular DNA during late apoptosis and necrosis when the cell membrane has been damaged. This combination allows for the differentiation of early apoptotic (A+/P−), late apoptotic (A+/P+), necrosis (A−/P+), and normal (A−/P−) cells that can be quantified by flow cytometry.
(§3) The cell cycle and the type of cell death induced by the test compounds were measured by using flow cytometry according to the manufacturer’s protocol. […] Control cells were grown with fresh medium supplemented with 0.5% DMSO. After 24 h of incubation, the cells were collected by trypsinization. Then, samples were centrifuged (3 min, 2000 rpm, RT) and washed with PBS, after which the cells were centrifuged again (3 min, 2000 rpm, RT) and the supernatant was carefully removed. The resulting precipitate contained cells, which were used for flow cytometry experiments.
(§4) The fraction of dead cells after treatment with the test compounds were detected using the FITC Annexin-V Apoptosis Detection Kit with PI (BioLegend, San Diego, CA, USA). […] 250 μL of the Annexin-V Binding Buffer was then added and the samples were incubated in the dark on ice for 15 min.

MCF-7 cells [4] = experiment: Annexin V-FITC/PI apoptosis flow cytometry, MCF-7; details: IC50 dose, 24 h
Description: as §2, §3, §4

NHDF-Neo cells = experiment: Cell cycle analysis by flow cytometry, NHDF-Neo; details: IC50 dose, 24 h
Description: After determining the type of cell death caused by the test compounds, the flow cytometry technique was used to study their influence on potential changes in the course of the cell cycle of the HCT-116, MCF-7, and NHDF-Neo lines. The cell cycle is the sequence of growth and division of cells, both normal and cancerous. This process begins from the resting phase (G0) through the active growth phases (G1, S, G2), leading to mitosis (M) in which the cell’s nucleus divides. […] After this time, cells were harvested and treated with a buffer to lysate the cells and isolate the cell nuclei. Propidium iodide was used to assess the amount of DNA in particular phases of the cell cycle. Histograms of DNA content in cells are presented in the Supplementary Materials (Figure S74).
The cell cycle and the type of cell death induced by the test compounds were measured by using flow cytometry according to the manufacturer’s protocol. The cells were seeded into 6-well plates at a density of 3 × 10^5 (HCT-116) or 4 × 10^5 (MCF-7, NHDF-Neo) per well (3 mL) and allowed to attach for 24 h under standard conditions with 5% CO2 at 37 °C. The following day, the medium was removed and cells were treated with solutions of test compounds in fresh medium at a dose equal to their IC50 values. Control cells were grown with fresh medium supplemented with 0.5% DMSO. After 24 h of incubation, the cells were collected by trypsinization. Then, samples were centrifuged (3 min, 2000 rpm, RT) and washed with PBS, after which the cells were centrifuged again (3 min, 2000 rpm, RT) and the supernatant was carefully removed. The resulting precipitate contained cells, which were used for flow cytometry experiments.
For cell cycle analysis, the cells were suspended in 300 μL of hypotonic buffer (consisting of: sodium citrate dihydrate 1 g/L, propidium iodide (PI) 1 mg/mL, RNAse A 10 mg/mL (EURx, Gdańsk, Poland), Triton X-100 1:9), mixed gently and incubated in the dark at room temperature for 20–30 min. […]

Oc1cccc2cccnc12 [Compound 8HQ, 8-hydroxyquinoline, reference compound]
effect of EDG inhibitor in words, HCT-116 (HCT-116 cells [1]): did not have any effect on the cellular uptake
effect of EDG inhibitor in words, MCF-7 (MCF-7 cells [2]): did not have any effect on the cellular uptake
apoptosis induction in words, HCT-116 (HCT-116 cells [3]): results were similar to the control fraction
apoptosis induction in words, MCF-7 (MCF-7 cells [4]): results were similar to the control fraction
cell cycle phase distribution in words, NHDF-Neo (NHDF-Neo cells): subG1 phase increasing
